Assay results published in US6686209B2, “Reagents for detecting cannabinoids” (Lifepoint, Inc., priority 2001, dated 2004).

System: antibodies against Δ^9-THC
Test: Cross-reactivity by displacement of cannabinol-based tracer from immobilized antibody (continuous flow)
Type: binding
Conditions: for MAX FI (mV): sample with 25 ng/mL of unlabeled substance, cannabinol-based tracer (FIG. 10) displaced, 0 ng/mL baseline 422; for percent cross-reactivity: 25 ng/mL
Description: The lower binding affinity of an antibody to a particular tracer may be measured by the percent cross-reactivity of the antibody to the tracer as compared to the analyte in a sample. For example, immobilized antibodies against Δ^9-THC were bound with the cannabinol-based tracer (shown in FIG. 10) similar to the methods as described in Example VII. Different samples containing 25 ng/mL of Δ^9-THC (unlabeled), Δ^8-THC (unlabeled), unlabeled 9-carboxy-Δ^9-THC (THCA), cannabidiol (unlabeled), or unlabeled cannabinol were flowed through different columns having the antibody-tracer complex to determine the amount of cross-reactivity. The amount of tracer displaced was then compared between the different samples.
Using Δ^9-THC as the standard (i.e., Δ^9-THC set at 100% cross-reactivity) (1602/1602)), 9-carboxy-Δ^9-THC has a percent cross-reactivity of about 540% (8700/1602), and cannabinol has a percent cross-reactivity of about 79% (1266/1602). If 9-carboxy-Δ^9-THC were used as the standard (i.e., 9-carboxy-Δ^9-THC set at 100% cross-reactivity (8700/8700)), then the percent cross-reactivity for cannabinol would be about 14.5% (1266/8700). If Δ^8-THC were used as a standard (i.e., A ^8-THC set at 100% cross-reactivity (1488/1488)), then the present cross-reactivity for cannabinol would be about 85% (1266/1488).

With `CCCCCc1cc(O)c2c(c1)OC(C)(C)[C@@H]1CCC(C(=O)O)=C[C@@H]21` [THCA, 9-carboxy-Δ^9-THC] the “MAX FI (mV)” value was 8700 mV and the percent cross-reactivity (Δ^9-THC as the standard (100%)) was “about 540%”.

With `CCCCCc1cc(O)c2c(c1)OC(C)(C)[C@@H]1CCC(C)=C[C@@H]21` [Δ^9-THC, Δ^9-tetrahydrocannabinol] the “MAX FI (mV)” value was 1602 mV.

`CCCCCc1cc(O)c2c(c1)OC(C)(C)c1ccc(C)cc1-2` [Cannabinol, 6,6,9-trimethyl-3-pentyl-6H-dibenzo[b,d]pyran-1-ol] was tested, and the percent cross-reactivity (9-carboxy-Δ^9-THC as the standard (100%)) was “about 14.5%”, the “MAX FI (mV)” value was 1266 mV and the percent cross-reactivity (Δ^8-THC as the standard (100%)) was “about 85%”. For the same compound, the percent cross-reactivity (Δ^9-THC as the standard (100%)) was “about 79%”.

For `CCCCCc1cc(O)c2c(c1)OC(C)(C)[C@@H]1CC=C(C)C[C@@H]21` [Δ^8-THC], the “MAX FI (mV)” value was 1488 mV.

For `C=C(C)[C@@H]1CCC(C)=C[C@H]1c1c(O)cc(CCCCC)cc1O` [Cannabidiol, cannabidiol], the “MAX FI (mV)” value was 624 mV.
